The source of these data is US10875875B2, “Propionic acid derivatives and methods of use thereof” (Aviara Pharmaceuticals, Inc., priority 2017, dated 2020).

pIC50: −log10 of the molar value. Bounds are passed on as bounds.

For the experiment, the target named is α4β1 (Homo sapiens, UniProt P05556+P13612). Kind of experiment: α4β1 integrin inhibition, IC50. The following applies: read-out: α4β1 IC50. Type of experiment: binding.
Sequence of α4β1 (P13612 34-1032): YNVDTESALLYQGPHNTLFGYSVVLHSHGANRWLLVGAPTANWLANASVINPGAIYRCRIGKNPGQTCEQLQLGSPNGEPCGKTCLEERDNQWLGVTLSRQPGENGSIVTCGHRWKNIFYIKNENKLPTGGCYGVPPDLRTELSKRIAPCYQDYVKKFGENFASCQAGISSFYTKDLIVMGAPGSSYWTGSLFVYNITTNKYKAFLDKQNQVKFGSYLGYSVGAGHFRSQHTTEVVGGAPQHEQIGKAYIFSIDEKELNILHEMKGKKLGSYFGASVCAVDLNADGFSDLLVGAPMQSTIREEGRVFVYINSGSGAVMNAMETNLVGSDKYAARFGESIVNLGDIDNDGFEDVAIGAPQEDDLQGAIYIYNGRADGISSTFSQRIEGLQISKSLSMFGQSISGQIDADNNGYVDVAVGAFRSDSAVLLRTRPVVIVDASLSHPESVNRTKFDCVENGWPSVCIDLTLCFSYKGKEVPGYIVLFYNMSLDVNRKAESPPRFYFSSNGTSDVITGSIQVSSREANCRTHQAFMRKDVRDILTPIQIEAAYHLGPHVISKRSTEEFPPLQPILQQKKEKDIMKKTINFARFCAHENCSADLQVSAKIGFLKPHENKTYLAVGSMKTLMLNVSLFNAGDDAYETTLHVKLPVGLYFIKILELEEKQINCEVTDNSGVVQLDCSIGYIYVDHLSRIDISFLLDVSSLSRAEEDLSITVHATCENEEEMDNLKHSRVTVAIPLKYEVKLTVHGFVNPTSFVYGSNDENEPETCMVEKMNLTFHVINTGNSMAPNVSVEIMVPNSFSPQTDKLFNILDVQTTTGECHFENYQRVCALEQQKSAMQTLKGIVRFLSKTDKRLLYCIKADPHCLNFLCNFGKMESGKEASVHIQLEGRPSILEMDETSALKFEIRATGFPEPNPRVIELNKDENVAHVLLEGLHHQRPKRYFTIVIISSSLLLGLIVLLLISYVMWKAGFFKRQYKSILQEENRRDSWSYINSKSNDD
Sequence of α4β1 (P05556 21-798): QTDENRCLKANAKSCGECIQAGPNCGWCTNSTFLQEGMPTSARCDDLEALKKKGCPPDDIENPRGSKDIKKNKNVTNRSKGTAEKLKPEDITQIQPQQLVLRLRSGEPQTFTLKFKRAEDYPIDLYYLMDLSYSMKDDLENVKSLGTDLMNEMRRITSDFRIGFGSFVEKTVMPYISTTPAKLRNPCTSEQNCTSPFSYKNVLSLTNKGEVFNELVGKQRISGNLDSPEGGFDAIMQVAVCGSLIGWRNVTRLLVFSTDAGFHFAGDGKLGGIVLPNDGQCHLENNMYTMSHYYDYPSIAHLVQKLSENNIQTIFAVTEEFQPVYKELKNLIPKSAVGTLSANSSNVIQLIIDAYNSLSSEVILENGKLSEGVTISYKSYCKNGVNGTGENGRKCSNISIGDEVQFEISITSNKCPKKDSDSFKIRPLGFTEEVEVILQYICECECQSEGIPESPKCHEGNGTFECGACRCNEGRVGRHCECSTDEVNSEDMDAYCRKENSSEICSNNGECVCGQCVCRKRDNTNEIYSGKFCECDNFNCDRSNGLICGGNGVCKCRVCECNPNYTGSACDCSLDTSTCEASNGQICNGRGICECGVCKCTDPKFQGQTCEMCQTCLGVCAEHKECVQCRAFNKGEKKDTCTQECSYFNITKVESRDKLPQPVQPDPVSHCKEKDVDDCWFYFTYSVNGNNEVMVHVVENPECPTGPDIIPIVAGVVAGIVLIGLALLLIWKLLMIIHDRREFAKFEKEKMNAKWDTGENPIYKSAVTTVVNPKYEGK

On to `Cn1ccc(O)c(NC(=O)N[C@@H](CC(=O)O)c2cc(-c3ccccc3)ccc2F)c1=O` [1-570, sodium (S)-3-(4-fluorobiphenyl-3-yl)-3-(3-(1-methyl-4-oxido-2-oxo-1,2-dihydropyridin-3-yl)ureido)propanoate], for which the pIC50 was greater than 7.70.

Turning to `Cc1ccc([C@H](CC(=O)O)NC(=O)Nc2c(O)cc(C)n(C)c2=O)cc1-c1cccc(OC(F)(F)F)c1` [1-577, sodium (S)-3-(3-(1,6-dimethyl-4-oxido-2-oxo-1,2-dihydropyridin-3-yl)ureido)-3-(6-methyl-3′-(trifluoromethoxy)biphenyl-3-yl)propanoate], the pIC50 is greater than 7.70.

Consider `Cn1ccc(O)c(NC(=O)N[C@@H](CC(=O)O)c2cc(-c3cccc(OC(F)(F)F)c3)ccc2F)c1=O` [1-594, sodium (S)-3-(4-fluoro-3′-(trifluoromethoxy)biphenyl-3-yl)-3-(3-(1-methyl-4-oxido-2-oxo-1,2-dihydropyridin-3-yl)ureido)propanoate], for which the pIC50 was greater than 7.70.

In the case of `Cc1cn(C)c(=O)c(NC(=O)N[C@@H](CC(=O)O)c2cccc(-c3cccc(F)c3F)c2)c1O` [1-496, sodium (S)-3-(2′,3′-difluorobiphenyl-3-yl)-3-(3-(1,5-dimethyl-4-oxido-2-oxo-1,2-dihydropyridin-3-yl)ureido)propanoate], the pIC50 is greater than 6.70.

On to `Cc1cc(O)c(NC(=O)N[C@@H](CC(=O)O)c2cc(F)cc(-c3ccc(F)cc3F)c2)c(=O)n1C` [1-632, sodium (S)-3-(3-(1,6-dimethyl-4-oxido-2-oxo-1,2-dihydropyridin-3-yl)ureido)-3-(2′,4′,5-trifluorobiphenyl-3-yl)propanoate], for which the pIC50 is greater than 7.70.

Take `Cc1ccc(-c2cccc([C@H](CC(=O)O)NC(=O)Nc3c(O)c(C)cn(C)c3=O)c2)cc1C` [1-495, sodium (S)-3-(3-(1,5-dimethyl-4-oxido-2-oxo-1,2-dihydropyridin-3-yl)ureido)-3-(3′,4′-dimethylbiphenyl-3-yl)propanoate]: the pIC50 is greater than 6.70.

Consider `Cn1ccc(O)c(NC(=O)N[C@@H](CC(=O)O)c2cc(-c3ccccc3)cc(C(F)(F)F)c2)c1=O` [1-618, sodium (S)-3-(3-(1-methyl-4-oxido-2-oxo-1,2-dihydropyridin-3-yl)ureido)-3-(5-(trifluoromethyl)biphenyl-3-yl)propanoate], for which the pIC50 was less than 6.70.

Regarding `Cc1cc(O)c(NC(=O)N[C@@H](CC(=O)O)c2cccc(-c3ccccc3)c2F)c(=O)n1C` [1-610, sodium (S)-3-(3-(1,6-dimethyl-4-oxido-2-oxo-1,2-dihydropyridin-3-yl)ureido)-3-(2-fluorobiphenyl-3-yl)propanoate], the pIC50 was greater than 7.70.

For the compound `Cc1cc(-c2cccc([C@H](CC(=O)O)NC(=O)Nc3c(O)c(C)cn(C)c3=O)c2)ccc1F` [1-497, sodium (S)-3-(3-(1,5-dimethyl-4-oxido-2-oxo-1,2-dihydropyridin-3-yl)ureido)-3-(4′-fluoro-3′-methylbiphenyl-3-yl)propanoate], the pIC50 is greater than 6.70.

`COc1ccc([C@H](CC(=O)O)NC(=O)Nc2c(O)ccn(C)c2=O)cc1-c1ccccc1` [1-529, sodium (S)-3-(6-methoxybiphenyl-3-yl)-3-(3-(1-methyl-4-oxido-2-oxo-1,2-dihydropyridin-3-yl)ureido)propanoate]: the pIC50 was greater than 7.70.

In the case of `COc1cc(-c2cccc(OC(F)(F)F)c2)cc([C@H](CC(=O)O)NC(=O)Nc2c(O)ccn(C)c2=O)c1` [1-565, sodium (S)-3-(5-methoxy-3′-(trifluoromethoxy)biphenyl-3-yl)-3-(3-(1-methyl-4-oxido-2-oxo-1,2-dihydropyridin-3-yl)ureido)propanoate], the pIC50 is greater than 7.70.

As for `COc1cccc(-c2cccc([C@H](CC(=O)O)NC(=O)Nc3c(O)c(C)cn(C)c3=O)c2)c1C` [1-489, sodium (S)-3-(3-(1,5-dimethyl-4-oxido-2-oxo-1,2-dihydropyridin-3-yl)ureido)-3-(3′-methoxy-2′-methylbiphenyl-3-yl)propanoate], the pIC50 was greater than 6.70.

As to `Cc1cccc(C)c1-c1cc([C@H](CC(=O)O)NC(=O)Nc2c(O)cc(C)n(C)c2=O)ccc1F` [1-578, sodium (S)-3-(3-(1,6-dimethyl-4-oxido-2-oxo-1,2-dihydropyridin-3-yl)ureido)-3-(6-fluoro-2′,6′-dimethylbiphenyl-3-yl)propanoate], the pIC50 was greater than 7.70.

As to `Cc1cccc(C)c1-c1cc(F)cc([C@H](CC(=O)O)NC(=O)Nc2c(O)ccn(C)c2=O)c1` [1-600, sodium (S)-3-(5-fluoro-2′,6′-dimethylbiphenyl-3-yl)-3-(3-(1-methyl-4-oxido-2-oxo-1,2-dihydropyridin-3-yl)ureido)propanoate], the pIC50 was greater than 7.70.

Consider `COc1cccc(-c2csc([C@H](CC(=O)O)NC(=O)Nc3c(O)ccn(C)c3=O)c2)c1` [1-528, sodium (S)-3-(4-(3-methoxyphenyl)thiophen-2-yl)-3-(3-(1-methyl-4-oxido-2-oxo-1,2-dihydropyridin-3-yl)ureido)propanoate], for which the pIC50 was greater than 7.70.

With `Cc1ccccc1-c1ccc([C@H](CC(=O)O)NC(=O)Nc2c(O)ccn(C)c2=O)cc1` [1-616, sodium (S)-3-(3-(1-methyl-4-oxido-2-oxo-1,2-dihydropyridin-3-yl)ureido)-3-(2′-methylbiphenyl-4-yl)propanoate], the pIC50 was greater than 7.70.

As to `COc1cc(-c2ccc(F)cc2F)cc([C@H](CC(=O)O)NC(=O)Nc2c(O)cc(C)n(C)c2=O)c1` [1-581, sodium (S)-3-(2′,4′-difluoro-5-methoxybiphenyl-3-yl)-3-(3-(1,6-dimethyl-4-oxido-2-oxo-1,2-dihydropyridin-3-yl)ureido)propanoate], the pIC50 is greater than 7.70.

In the case of `Cc1cscc1-c1ccc([C@H](CC(=O)O)NC(=O)Nc2c(O)ccn(C)c2=O)s1` [1-584, sodium (S)-3-(4′-methyl-2,3′-bithiophen-5-yl)-3-(3-(1-methyl-4-oxido-2-oxo-1,2-di hydropyridin-3-yl)ureido)propanoate], the pIC50 is greater than 7.70.

`Cn1ccc(O)c(NC(=O)N[C@@H](CC(=O)O)c2cccc(-c3cc[nH]c3)c2)c1=O` [1-544, sodium (S)-3-(3-(1H-pyrrol-3-yl)phenyl)-3-(3-(1-methyl-4-oxido-2-oxo-1,2-dihydropyridin-3-yl)ureido)propanoate]: the pIC50 was greater than 7.70.

`COc1cccc(OC)c1-c1cccc([C@H](CC(=O)O)NC(=O)Nc2c(O)c(C)cn(C)c2=O)c1` [1-479, sodium (S)-3-(2′,6′-dimethoxybiphenyl-3-yl)-3-(3-(1,5-dimethyl-4-oxido-2-oxo-1,2-dihydropyridin-3-yl)ureido)propanoate]: the pIC50 is greater than 6.70.

As to `COc1cccc(-c2cccc([C@H](CC(=O)O)NC(=O)Nc3c(O)c(C)cn(C)c3=O)c2)c1OC` [1-504, sodium (S)-3-(2′,3′-dimethoxybiphenyl-3-yl)-3-(3-(1,5-dimethyl-4-oxido-2-oxo-1,2-dihydropyridin-3-yl)ureido)propanoate], the pIC50 is greater than 7.70.

Regarding `Cc1cc(O)c(NC(=O)N[C@@H](CC(=O)O)c2cc(F)cc(-c3cccc(OC(F)(F)F)c3)c2)c(=O)n1C` [1-606, sodium (S)-3-(3-(1,6-dimethyl-4-oxido-2-oxo-1,2-dihydropyridin-3-yl)ureido)-3-(5-fluoro-3′-trifluoromethoxybiphenyl-3-yl)propanoate], the pIC50 was greater than 7.70.

As for `COc1ccc(OC)c(-c2cccc([C@H](CC(=O)O)NC(=O)Nc3c(O)c(C)cn(C)c3=O)c2)c1` [1-477, sodium (S)-3-(2′,5′-dimethoxybiphenyl-3-yl)-3-(3-(1,5-dimethyl-4-oxido-2-oxo-1,2-dihydropyridin-3-yl)ureido)propanoate], the pIC50 was greater than 6.70.

Turning to `Cc1cccc(C)c1-c1ccc([C@H](CC(=O)O)NC(=O)Nc2c(O)ccn(C)c2=O)cc1` [1-636, sodium (S)-3-(2′,6′-dimethylbiphenyl-4-yl)-3-(3-(1-methyl-4-oxido-2-oxo-1,2-dihydropyridin-3-yl)ureido)propanoate], the pIC50 is greater than 6.70.

Regarding `Cn1ccc(O)c(NC(=O)N[C@@H](CC(=O)O)c2cccc(-c3ccccc3OC(F)(F)F)c2)c1=O` [1-512, sodium (S)-3-(3-(1-methyl-4-oxido-2-oxo-1,2-dihydropyridin-3-yl)ureido)-3-(2′-(trifluoromethoxy)biphenyl-3-yl)propanoate], the pIC50 was greater than 7.70.

In the case of `Cc1cn(C)c(=O)c(NC(=O)NC(CC(=O)O)c2cccc(-n3cccc3)c2)c1O` (stereo not shown) [1-445, sodium 3-(3-(1H-pyrrol-1-yl)phenyl)-3-(3-(1,5-dimethyl-4-oxido-2-oxo-1,2-dihydropyridin-3-yl)ureido)propanoate], the pIC50 was greater than 6.70.

Turning to `Cc1noc(C)c1-c1ccc([C@H](CC(=O)O)NC(=O)Nc2c(O)ccn(C)c2=O)s1` [1-608, sodium (S)-3-(5-(3,5-dimethylisoxazol-4-yl)thiophen-2-yl)-3-(3-(1-methyl-4-oxido-2-oxo-1,2-dihydropyridin-3-yl)ureido)propanoate], the pIC50 is greater than 7.70.

Turning to `CCn1cc(C)c(O)c(NC(=O)N[C@@H](CC(=O)O)c2cccc(-c3ccccc3)c2)c1=O` [1-438, sodium (S)-3-(biphenyl-3-yl)-3-(3-(1-ethyl-5-methyl-4-oxido-2-oxo-1,2-dihydropyridin-3-yl)ureido)propanoate], the pIC50 was greater than 6.70.

Regarding `Cc1cn(C)c(=O)c(NC(=O)NC(CC(=O)O)c2cccc(-c3ccccc3Cl)c2)c1O` (stereo not shown) [1-473, sodium 3-(2′-chlorobiphenyl-3-yl)-3-(3-(1,5-dimethyl-4-oxido-2-oxo-1,2-dihydropyridin-3-yl)ureido)propanoate], the pIC50 was greater than 7.70.

Consider `COc1ccc([C@H](CC(=O)O)NC(=O)Nc2c(O)ccn(C)c2=O)cc1-c1cccc(Cl)c1` [1-534, sodium (S)-3-(3′-chloro-6-methoxybiphenyl-3-yl)-3-(3-(1-methyl-4-oxido-2-oxo-1,2-dihydropyridin-3-yl)ureido)propanoate], for which the pIC50 is greater than 7.70.

Consider `Cc1ccccc1-c1cc([C@H](CC(=O)O)NC(=O)Nc2c(O)cc(C)n(C)c2=O)ccc1F` [1-611, sodium (S)-3-(3-(1,6-dimethyl-4-oxido-2-oxo-1,2-dihydropyridin-3-yl)ureido)-3-(6-fluoro-2′-methylbiphenyl-3-yl)propanoate], for which the pIC50 was greater than 7.70.
